Assay results taken from the supplement of paper PMC11061612.

Tests used:
[1] = system: CTV-1 (T-Lymphoblastic Leukemia); assay: Bliss excess, mean over the matrix (fraction); higher = more synergy
Procedure, shortened: (§1)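 Cell lines in DMEM/F12 or RPMI with 10% FBS were plated in 1536-well plates, held 24 hours at 37°C, 5% CO2, then given two-drug dose matrices for 72 hours (DMSO typically 0.2%). Viability was read by CellTiter-Glo 2.0 luminescence and scaled as inhibition from 0 (vehicle wells) to 1 (blank wells). Combination Emax is the second-highest inhibition in the matrix; Bliss excess is observed combination effect minus expected EA + EB − EA·EB, EA and EB being single-agent effects.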

[2] = system: G-292-Clone-A141B1 (Osteosarcoma); assay: as above
Procedure, shortened: as §1

[3] = system: KARPAS-1106P (B-Cell Non-Hodgkin's Lymphoma); assay: as above
Procedure, shortened: as §1

[4] = system: KATOIII (Gastric Carcinoma); assay: as above
Procedure, shortened: as §1

[5] = system: KM-H2 (Hodgkin's Lymphoma); assay: as above
Procedure, shortened: as §1

[6] = system: NCI-H1694 (Small Cell Lung Carcinoma); assay: as above
Procedure, shortened: as §1

[7] = system: NCI-H2595 (Mesothelioma); assay: as above
Procedure, shortened: as §1

[8] = system: RH-1 (Ewing's Sarcoma); assay: as above
Procedure, shortened: as §1

[9] = system: SUIT-2 (Pancreatic Carcinoma); assay: as above
Procedure, shortened: as §1

[10] = system: SW1990 (Pancreatic Carcinoma); assay: as above
Procedure, shortened: as §1

[11] = system: TGBC24TKB (Biliary Tract Carcinoma); assay: as above
Procedure, shortened: as §1

[12] = system: CTV-1 (T-Lymphoblastic Leukemia); assay: combination Emax (second highest fraction inhibited in the dose matrix, 72 h); higher = more inhibition; extreme values may be limits of the assay
Procedure, shortened: as §1

[13] = system: DMS-273 (Small Cell Lung Carcinoma); assay: as above
Procedure, shortened: as §1

[14] = system: G-292-Clone-A141B1 (Osteosarcoma); assay: as above
Procedure, shortened: as §1

[15] = system: HCC2157 (Breast Carcinoma); assay: as above
Procedure, shortened: as §1

[16] = system: IGR-1 (Melanoma); assay: as above
Procedure, shortened: as §1

[17] = system: KARPAS-1106P (B-Cell Non-Hodgkin's Lymphoma); assay: as above
Procedure, shortened: as §1

[18] = system: NALM-6 (B-Lymphoblastic Leukemia); assay: as above
Procedure, shortened: as §1

[19] = system: NCI-H2595 (Mesothelioma); assay: as above
Procedure, shortened: as §1

[20] = system: SW1088 (Low Grade Glioma); assay: as above
Procedure, shortened: as §1
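Throughout, for Bliss excess, mean over the matrix: after 72 h of two-drug dosing.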

`COc1nnc2ccc(N3CCC(c4ccc(OCCN5CCN(C)C(=O)[C@H]5C)cc4)CC3)nn12` [AZD5153] + Cc1c2c(nn1C)CSCc1cc(n(C)n1)CSc1cc(c3ccccc3c1)OCCCc1c(C(=O)O)n(C)c3c-2c(Cl)ccc13 [AZD5991] (first compound max 1 µM, 7x7, partner max 1 µM) was tested, and the Bliss excess [1] was -0.0515, the Bliss excess [2] was -0.032 and the Bliss excess [3] was 0.0005. The Bliss excess [4] was -0.0765, the Bliss excess [5] was -0.0495 and the Bliss excess [6] was 0.0992. It also gave a Bliss excess [7] of 0.015, a Bliss excess [8] of 0.0034 and a Bliss excess [9] of -0.0318. The Bliss excess [10] was -0.0477, the Bliss excess [11] was 0.0447 and the “combination Emax” value [12] was 0.939. The “combination Emax” value [13] was 0.994, the “combination Emax” value [14] was 0.387 and the “combination Emax” value [15] was 1. The “combination Emax” value [16] was 0.752, the “combination Emax” value [17] was 1 and the “combination Emax” value [18] was 0.904. For the same molecule, the “combination Emax” value [19] was 0.602 and the “combination Emax” value [20] was 0.487.
`COc1cc2c(cc1OCCCCCOc1cc3c(cc1OC)C(=O)N1C=C(C)C[C@H]1C=N3)N=C[C@@H]1CC(C)=CN1C2=O` [SG3199] + O=C(c1cc(Cc2n[nH]c(=O)c3ccccc23)ccc1F)N1CCN(C(=O)C2CC2)CC1 [Olaparib] (first compound max 0.001 µM, 7x7, partner max 10 µM) gave a Bliss excess [1] of -0.013, a Bliss excess [2] of -0.0571 and a Bliss excess [3] of -0.0202. It also gave a Bliss excess [4] of -0.0365, a Bliss excess [5] of 0.0232 and a Bliss excess [6] of -0.0222. For the same molecule, the Bliss excess [7] was -0.0437, the Bliss excess [8] was -0.0035 and the Bliss excess [9] was -0.0029. For the same molecule, the Bliss excess [10] was -0.049, the Bliss excess [11] was -0.0087 and the “combination Emax” value [12] was 0.127. For the same molecule, the “combination Emax” value [13] was 0.308, the “combination Emax” value [14] was 0.145 and the “combination Emax” value [15] was 0.264. The “combination Emax” value [16] was 0.187, the “combination Emax” value [17] was 0.467 and the “combination Emax” value [18] was 0.459. The “combination Emax” value [19] was 0.0944 and the “combination Emax” value [20] was 0.151.
Work on `COc1cccc(OCCCN)c1-c1cc(Nc2cnc(C#N)cn2)n[nH]1` [Prexasertib] + C=CCn1c(=O)c2cnc(Nc3ccc(N4CCN(C)CC4)cc3)nc2n1-c1cccc(C(C)(C)O)n1 [AZD1775] (first compound max 1 µM, partner max 1 µM) yielded a Bliss excess [1] of 0.0364, a Bliss excess [2] of 0.028 and a Bliss excess [3] of -0.0047. For the same molecule, the Bliss excess [4] was -0.0076, the Bliss excess [5] was 0.077 and the Bliss excess [6] was 0.13. The Bliss excess [7] was 0.0383, the Bliss excess [8] was 0.0653 and the Bliss excess [9] was 0.036. For the same molecule, the Bliss excess [10] was -0.0061, the Bliss excess [11] was 0.0429 and the “combination Emax” value [12] was 1. The “combination Emax” value [13] was 0.984, the “combination Emax” value [14] was 0.32 and the “combination Emax” value [15] was 1. The “combination Emax” value [16] was 0.708, the “combination Emax” value [17] was 0.949 and the “combination Emax” value [18] was 0.934. For the same molecule, the “combination Emax” value [19] was 0.307 and the “combination Emax” value [20] was 0.848.
Work on `NC1(C(=O)N[C@@H](CCO)c2ccc(Cl)cc2)CCN(c2ncnc3[nH]ccc23)CC1` [Capivasertib] + COc1nnc2ccc(N3CCC(c4ccc(OCCN5CCN(C)C(=O)[C@H]5C)cc4)CC3)nn12 [AZD5153] (first compound max 10 µM, 7x7, partner max 1 µM) yielded a Bliss excess [1] of 0.0097, a Bliss excess [2] of 0.0249 and a Bliss excess [3] of 0.0728. It also gave a Bliss excess [4] of -0.0386, a Bliss excess [5] of 0.0144 and a Bliss excess [6] of 0.0007. For the same molecule, the Bliss excess [7] was -0.0072, the Bliss excess [8] was 0.0517 and the Bliss excess [9] was 0.0367. For the same molecule, the Bliss excess [10] was -0.0086, the Bliss excess [11] was 0.0597 and the “combination Emax” value [12] was 1. The “combination Emax” value [13] was 0.884, the “combination Emax” value [14] was 0.573 and the “combination Emax” value [15] was 1. The “combination Emax” value [16] was 0.406, the “combination Emax” value [17] was 0.979 and the “combination Emax” value [18] was 0.945. The “combination Emax” value [19] was 0.301 and the “combination Emax” value [20] was 0.638.
`C=CCn1c(=O)c2cnc(Nc3ccc(N4CCN(C)CC4)cc3)nc2n1-c1cccc(C(C)(C)O)n1` [AZD1775] + C[C@@H]1COCCN1C2=NC(=NC(=C2)C3(CC3)[S@](=N)(=O)C)C4=C5C=CNC5=NC=C4 [AZD6738] (first compound max 1 µM, partner max 10 µM) was tested, and the Bliss excess [1] was 0.0737, the Bliss excess [2] was -0.0665 and the Bliss excess [3] was 0.0072. The Bliss excess [4] was -0.0139, the Bliss excess [5] was 0.0647 and the Bliss excess [6] was 0.0818. For the same molecule, the Bliss excess [7] was -0.0206, the Bliss excess [8] was 0.0329 and the Bliss excess [9] was -0.0287. The Bliss excess [10] was -0.0352, the Bliss excess [11] was -0.0018 and the “combination Emax” value [12] was 0.993. For the same molecule, the “combination Emax” value [13] was 0.923, the “combination Emax” value [14] was 0.354 and the “combination Emax” value [15] was 0.983. For the same molecule, the “combination Emax” value [16] was 0.538, the “combination Emax” value [17] was 0.886 and the “combination Emax” value [18] was 0.971. For the same molecule, the “combination Emax” value [19] was 0.266 and the “combination Emax” value [20] was 0.684.
`CC1(C)CCC(CN2CCN(c3ccc(C(=O)NS(=O)(=O)c4ccc(NCC5CCOCC5)c([N+](=O)[O-])c4)c(Oc4cnc5[nH]ccc5c4)c3)CC2)=C(c2ccc(Cl)cc2)C1` [Venetoclax] + C[C@@H]1COCCN1C2=NC(=NC(=C2)C3(CC3)[S@](=N)(=O)C)C4=C5C=CNC5=NC=C4 [AZD6738] (first compound max 1 µM, 7x7, partner max 10 µM) was tested, and the Bliss excess [1] was -0.0067, the Bliss excess [2] was -0.0438 and the Bliss excess [3] was -0.0213. The Bliss excess [4] was -0.0859, the Bliss excess [5] was 0.0384 and the Bliss excess [6] was 0.0443. It also gave a Bliss excess [7] of 0.0027, a Bliss excess [8] of -0.0158 and a Bliss excess [9] of -0.0491. The Bliss excess [10] was -0.0556, the Bliss excess [11] was -0.0188 and the “combination Emax” value [12] was 0.924. For the same molecule, the “combination Emax” value [13] was 0.809, the “combination Emax” value [14] was 0.344 and the “combination Emax” value [15] was 0.877. For the same molecule, the “combination Emax” value [16] was 0.675, the “combination Emax” value [17] was 0.688 and the “combination Emax” value [18] was 0.994. The “combination Emax” value [19] was 0.249 and the “combination Emax” value [20] was 0.684.
